Data as given in patent publication US20170166979A1, “PERSONALIZED TREATMENT OF CANCER USING FGFR INHIBITORS” (priority 2014, published 2017).
“Also recorded” adds a separate entry of the source.

Columns and labels:
[1] = test system: stage IV squamous cell lung cancer with FGFR1 amplification and MYC score of 3; experiment: Patient treated with BGJ398 in first-in-humans trial (CT, RECIST 1.1); assay type: in vivo, human; conditions: 100 mg
From the text: FIG. 11. […] The sample was scored (degrees 0-3) by FGFR1 dual-color FISH (top, normalized copy-number ratio) as well as MYC IHC (bottom, nuclear staining intensity).
FIG. 13. Fused scans of positron emission tomography (PET) and computer tomography (CT) before (top left, baseline) and after the beginning of BGJ389 therapy (top right, 4 weeks). […] Target lesions for evaluation of tumor response are highlighted by red arrows. IHC, immunohistochemistry.
We identified a person with a 70-packper-year smoking history. […] The patient agreed to treatment with BGJ398, a highly specific FGFR1 inhibitor, which was being evaluated in a first-in-humans trial at our center. After cardiac assessment and baseline thoracic computed tomography (CT), treatment with 100 mg BGJ398 was started.

[2] = test system: NIH3T3 cells expressing either of the mesenchymal FGFR1 splice variants; experiment: Xenograft mouse model, tumor volume; assay type: in vivo, nude mice; conditions: 15 mg/kg, q.d.
Experimental: (§1) FIG. 4. Nude mice, engrafted with retrovirally transduced NIH3T3 cells, received BGJ398 (15 mg/kg, q.d., lower curve) or 5% glucose (upper curve), respectively, upon formation of palpable tumors. Volumes of tumors formed by NIH3T3-FGFR1f3 cells (top) and NIH3T3-FGFR1β-MYC cells (bottom) were assessed every second day and compared by the t test. Error bars display SD of three independent experiments.
(§2) All animal procedures were approved by the local animal protection committee and the local authorities. Transduced NIH3T3 and tumor cells were resuspended in RPMI or DMEM medium and injected (5×10^6 cells per tumor) subcutaneously into the flanks of 8- to 15-week-old male nude mice [Rj:NMRI-nu (nu/nu), Janvier Europe] under 2.5% isoflurane anesthesia.
(§3) To assess the effect of FGFR1 inhibitors in vivo, NVP-BGJ 398 (Novartis) was dissolved in a vehicle solution (33% PEG300, 5% glucose) for xenograft application. Tumor size was monitored every second day by measurement of perpendicular diameters by an external caliper and calculated by use of the modified ellipsoid formula [V=½ (Length×Width 2)]. Oral therapy was started when tumors reached a volume of 100 mm 3. Mice received daily either
(§4) BGJ398 (15 mg/kg) or vehicle solution. After 14 (NIH3T3 FGFR1(3 +MYC), 16 (NIH3T3 EML4-ALK, KRAS G12V), or 25 (NIH3T3 e.V., FGFR1α/β) days of therapy, respectively, mice were sacrificed by intraperitoneal injection of ketamine/xylazine (300/60 mg/kg).

NIH3T3-FGFR1β-MYC cells = experiment: Xenograft mouse model, tumor volume; assay type: in vivo, nude mice; conditions: 15 mg/kg, q.d., tumors coexpressing FGFR1 and MYC; P<0.001
Experimental: as §1, §2, §3, §4

[3] = test system: FGFR-dependent cell lines; experiment: Mitochondrial apoptosis mediators upon FGFR inhibition; assay type: cell-based; conditions: 1 μmol/L, after 72 hours
[4] = test system: FGFR-dependent H1581 cells; experiment: Induction of apoptosis (Annexin-V/PI, flow cytometry); assay type: cell-based; conditions: 1 μmol/L, 72-hour
From the text: (§5) FIG. 3. Induction of apoptosis (Annexin-V/PI, flow cytometry) in NIH3T3 cells, (co-) transduced with FGFR1β+/−MYC, by 72-hour FGFR inhibition (PD173074, 1 μmol/L). FGFR-dependent H1581 cells (PD173074, 1 μmol/L) as well as ALK-dependent NIH3T3-EML4-ALK
cells (TAE684, 1 μmol/L) were used as positive controls. Resistant HCC15 and NIH3T3-e.V. cells served as negative controls. *, Significant induction of apoptosis.

[5] = test system: FGFR-dependent cancer cell lines (H1581, DMS114, and HCC1599); experiment: FGFR dependency of cancer cell lines (cellular ATP content after 96 hours); assay type: cell-based; conditions: FGFR-dependent group: H1581, DMS114, HCC1599
Experimental: (§6) FIG. 7. Protein expression of MYC was silenced by stable lentiviral transduction of FGFR dependent H1581 cells as well as HCC15, H2882, and HCC95 controls. Knockdown efficiency was validated by immunoblotting for H1581, H2882, and HCC15 cells (top). FGFR dependency was determined by measuring cellular ATP content after 96 hours (bottom).
(§7) FIG. 9. Segregation of FGFR1 amplification with RNA expression levels of MYC Cancer cell lines were divided into an FGFR-dependent (H1581, DMS114, and HCC1599) GI 50<500 nmol/L, PD173074) versus resistant group (A427, H520, H1703, HCC15, H358, HCC95, H187, SW1271, H526, and DMS153 cells). Expression levels were compared by the Student t test. wt, wild-type.

[6] = test system: resistant group (A427, H520, H1703, HCC15, H358, HCC95, H187, SW1271, H526, and DMS153 cells); experiment: as above; assay type: cell-based
Experimental: as §6, §7

[7] = test system: FGFR1-MYC cotransduced NIH3T3 cells; experiment: Induction of apoptosis (Annexin-V/PI, flow cytometry); assay type: cell-based; conditions: 1 μmol/L, 72-hour FGFR inhibition
From the text: as §5
(§8) cells (TAE684, 1 μmol/L) were used as positive controls.

[8] = test system: NIH3T3 cells expressing FGFR1 alone; experiment: as above; assay type: cell-based; conditions: 1 μmol/L, 72-hour FGFR inhibition
From the text: as §5, §8

[9] = test system: FGFR-dependent cell lines H1581 and DMS114; experiment: Immunoblotting of MYC and cyclin D1 expression upon FGFR inhibition; assay type: cell-based; conditions: 1 μmol/L, within 24 hours
Experimental: (§9) FIG. 6. FGFR1-amplified H1581, DMS114, and HCC95 cells as well as HCC15 (NRAS mut) controls were treated with PD173074 (1 μmol/L, 24 hours). Expression levels of MYC, cyclin D1, and actin as well as ERK phosphorylation were monitored by immunoblotting. Con.: positive control NIH3T3-FGFR1β cells.

[10] = test system: FGFR1-amplified HCC95 and H520 cells and NRAS-mutant HCC15 cells; experiment: as above; assay type: cell-based; conditions: 1 μmol/L, 24 hours
Experimental: as §9

Compound	Duration of therapy until progressive disease (kidney, RECIST1.1) [1] [months]	Symptoms [1]	Response according to RECIST 1.1 criteria ([1]; CT scans after 4 and 8 weeks)	Tumor response on CT ([1]; CT scans after 4 and 8 weeks)	Tumor growth ([2]; oral, nude mice)	Tumor shrinkage ([2]; tumors expressing FGFR1 alone)	Tumor regression (NIH3T3-FGFR1β-MYC cells)	Cytochrome C release [3]	Loss of the mitochondrial membrane potential [3]	Induction of apoptosis [4]	GI50 [5] [nM]	FGFR dependency group [6]	Induction of apoptosis [7]	Induction of apoptosis [8]	Levels of MYC [9]	Levels of cyclin D1 [9]	Expression levels (MYC, cyclin D1) [10]
CCN1CCN(c2ccc(Nc3cc(N(C)C(=O)Nc4c(Cl)c(OC)cc(OC)c4Cl)ncn3)cc2)CC1 [BGJ398]	10	improvement of symptoms	partial response (PR)	tumor regression; also recorded: regression without cavitation of the tumor	repressed tumor growth	did not induce tumor shrinkage	led to regressions										
CCN(CC)CCCCNc1ncc2cc(-c3cc(OC)cc(OC)c3)c(NC(=O)NC(C)(C)C)nc2n1 [PD173074]								occurred robustly	occurred robustly	induced apoptosis	< 500	resistant	induced apoptosis	but not in cells expressing FGFR1 alone	decreased	decreased	remained relatively stable
